Assay results from patent US20210238136A1, “AZETIDINE DERIVATIVE, AND PRODRUG THEREOF” (DAIICHI SANKYO COMPANY, LIMITED, priority 2018, published 2021).

Assays:
[1] = Pharmacokinetic test of prodrug compounds in mouse; assay type: in vivo, females, non-fasting); conditions: female, C57BL/6J; mouse plasma, IV 1 mg/kg of the active compound; read-out: AUClast after IV administration
Experimental: For prodrug compounds, the compounds of Examples 44, 103, and 104 (active compound of these is the compound of Example 41) and the compounds of Examples 89, 94, and 97 (active compound of these is the compound of Example 42), the plasma concentrations of the active compounds after oral administration to mice were measured, and various PK parameters were calculated. The method was as follows:
To C57BL/6J mice (females, non-fasting), the Example compounds were administered and blood sampling was performed under the following conditions.
Intravenous (IV): 1 mg/kg (n=2, 10% HP-β-CD dissolved in Saline/DMSO=95/5, v/v) Oral (PO): 10 mg/kg (n=2, 0.5% HPC dissolved in water)
After blood sampling, plasma was obtained by centrifugation, and to 10 μL of the obtained plasma, an equal amount of DMSO was added. […] The obtained samples were measured and quantitatively analyzed using MassLynx (version 4.1, Waters Corporation) under the following conditions.
From the plasma concentration measurements of the obtained active compound, the following PK parameters were calculated using Moment (Microsoft Excel).
AUClast: Area under plasma concentration-time curve to the last quantifiable time point Cmax: Maximum plasma concentration

[2] = tested on: activated T cells (CD4+ T cells from mouse spleen); test: 3H-thymidine uptake in activated T cells; assay type: cell-based, mouse (C57BL/6J); conditions: T-cell; mouse spleen CD4+ T cells activated with Dynabeads Mouse T-Activator CD3/CD28; read-out: IC50 (3H-thymidine uptake, proliferation of activated T cells)
Experimental: Effect of Test Substance on ^3H-Thymidine Uptake in Activated T Cells
The effect of test substance on ^3H-thymidine uptake by activation was evaluated using T cells from mouse spleen. The spleen was removed from euthanized C57BL/6J mice, and finely sliced, then triturated on a cell strainer (40 μm mesh), and cells were collected by centrifugation. The collected splenocytes were treated with Cold lyser containing 0.17 M NH4Cl for 5 minutes to hemolytically remove red blood cells and then washed. The resulting cells were used as the splenocytes. From the splenocytes, CD4+ T cells were isolated using an EasySep Mouse CD4+ T cell isolation kit (STEMCELL Technologies Inc.). The CD4+ T cells were seeded into 96-well round-bottom plates. To the plates, test substance or Vehicle was added, and Dynabeads Mouse T-Activator CD3/CD28 (Thermo Fisher Scientific Inc.) was added, then the cells were cultured at 37° C. under 5% CO2. After 24 hours of culture, ^3H-Thymidine (PerkinElmer Inc.) diluted with medium was added to each well, then the cells were further cultured at 37° C. under 5% CO2 overnight. To measure ^3H-Thymidine uptake into the nuclei of the cells, the cells were collected into filter plates UniFilter-96 GF/B (PerkinElmer Inc.) using a FilterMate Universal Harvester (PerkinElmer Inc.). The filter plates were placed in a dryer and left still for 2 hours or more. Then, scintillation cocktail MicroScint-O (PerkinElmer Inc.) was added to the plates, and radioactivity was measured with TopCount NXT (PerkinElmer Inc.). With the radioactivity of the test substance-free group set as 100% and the radioactivity of the non-activation group as 0%, the relative value (proliferation rate, % of vehicle) of the radioactivity of each well to which test substance was added was calculated. The value of % of vehicle was incorporated into analysis software Prism (Version 5.0, GraphPad Software), the “Nonlinear Regression Log (inhibitor) vs Reaction Variable Inclination” was selected, and then sigmoid fitting with restrictions of Bottom=0 and Top=100 was performed to calculate 50% inhibitory concentration (IC50).

[3] = tested on: IFN-α production in mouse splenocytes (pDC activation by CpG-ODN D35); test: IFN-α production in mouse splenocytes stimulated with TLR9 ligand CpG-ODN D35; assay type: cell-based, mouse (C57BL/6J); conditions: for IC50: Splenocyte, mouse splenocytes, CpG-ODN D35 1 μM, 24 hours of culture, ELISA; for effect on IFN-α production: test substances added at 1 nM to 300 nM
Experimental: The test substances were added at concentrations of 1 nM to 300 nM.
Effect of Test Substance on IFN-α Production in Mouse Splenocytes
Production of IFN-α by TLR9 ligand CpG-ODN D35 stimulation activating pDC was evaluated. Splenocytes were prepared from euthanized C57BL/6J mice in the same way as Test Example 1. Splenocytes were seeded into 96-well round-bottom plates, and test substance was added, and then the plates were preincubated for 30 minutes. Then, CpG-ODN D35 (final concentration 1 μM) was added, and the cells were cultured at 37° C. under 5% CO2. After 24 hours of culture, the culture supernatant was collected, and the IFN-α concentration in the supernatant was measured with an ELISA kit (Mouse IFN-alpha Platinum ELISA Kit, eBioscience). The relative value of the IFN-α concentration of each well when the IFN-α production of the test substance-free group was set as 100% and the amount of the non-stimulated group as 0% (IFN-α production rate, % of vehicle) was calculated. The relative value of the IFN-α concentration was incorporated into analysis software Prism (Version 5.0, GraphPad Software), the “Nonlinear Regression Log (inhibitor) vs Reaction Variable Inclination” was selected for each compound, and then sigmoid fitting with restrictions of Bottom=0 and Top=100 was performed to create a graph of the concentration reaction curve and calculate 50% inhibitory concentration (IC50).

| AUC(0-t) [1] | IC50 [3] | Compound | IC50 [2] | effect on IFN-α production [3] |
| --- | --- | --- | --- | --- |
| 728 ng·h/mL | 21 nM | N[C@@H](Cc1cccc(S(=O)(=O)N2CC(Oc3ccc(F)cc3)(c3ccccc3)C2)c1)C(=O)O [Example 41, (S)-2-Amino-3-(3-((3-(4-fluorophenoxy)-3-phenylazetidin-1-yl)sulfonyl)phenyl)propanoic acid] | 5.1 nM | concentration-dependent suppression effects |
| 499 ng·h/mL | 13 nM | N[C@@H](Cc1cccc(S(=O)(=O)N2CC(Oc3cccc(F)c3)(c3ccccc3)C2)c1)C(=O)O [Example 42, (S)-2-Amino-3-(3-((3-(3-fluorophenoxy)-3-phenylazetidin-1-yl)sulfonyl)phenyl)propanoic acid] | 4.1 nM | concentration-dependent suppression effects |
